# The supplement of paper PMC12137928
# Structures can show the parent of a compound that is named as a salt.
# Columns and labels:
# HCT116 [1] = test: efficacy (maximum % inhibition of viability vs DMSO); higher = more cytotoxic; conditions: 72 h
# In short: (§1)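 HCT116 cells were seeded at 250 per well in 1536-well plates with 5 h allowed for attachment. CellTiter-Glo luminescence was normalized against vehicle (0%) and positive control (-100%) before pattern correction. The IC50 and maximal efficacy figures derive from four-parameter Hill fits.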
# HCT116 [2] = conditions: 72 h
# In short: as §1
Structure (SMILES),efficacy (HCT116 [1]; ICRF193 0 nM) [%],efficacy (HCT116 [1]; ICRF193 200 nM) [%],IC50 cell viability (HCT116 [2]; ICRF193 0 nM) [µM],IC50 cell viability (HCT116 [2]; ICRF193 200 nM) [µM]
COc1cc2c(cc1Cc1cccc(Cl)c1F)c(=O)c(C(=O)O)cn2[C@H](CO)C(C)C [Elvitegravir],71.8,83,18.3,20.6
CNC(=O)c1ccc(N2C(=S)N(c3ccc(C#N)c(C(F)(F)F)c3)C(=O)C2(C)C)cc1F [Enzalutamide],,45.8,> 45.8,20.6
COc1cccc2c1C(=O)c1c(O)c3c(c(O)c1C2=O)C[C@@](O)(C(=O)CO)C[C@@H]3O[C@H]1C[C@H](N)[C@@H](O)[C@H](C)O1 [Epirubicin hydrochloride],91.9,73.8,0.73,1.46
C/C(=C\c1csc(C)n1)[C@@H]1C[C@@H]2O[C@]2(C)CCC[C@H](C)[C@H](O)[C@@H](C)C(=O)C(C)(C)[C@@H](O)CC(=O)O1 [Epothilone B],66,45.8,0.00517,0.0073
CN1C[C@H](C(=O)N[C@]2(C)O[C@@]3(O)[C@@H]4CCCN4C(=O)[C@H](Cc4ccccc4)N3C2=O)C=C2c3cccc4[nH]cc(c34)C[C@H]21 [Ergotamine tartrate],,70.8,> 45.8,18.3
C=C1C[C@@H]2CC[C@@]34C[C@H]5O[C@H]6[C@@H](O3)[C@H]3O[C@H](CC[C@@H]3O[C@H]6[C@H]5O4)CC(=O)C[C@@H]3[C@@H](OC)[C@@H](C[C@H](O)CN)O[C@H]3C[C@H]3O[C@@H](CC[C@@H]1O2)C[C@@H](C)C3=C [Eribulin mesylate],90.6,77.5,0.0651,0.164
C#Cc1cccc(Nc2ncnc3cc(OCCOC)c(OCCOC)cc23)c1 [Erlotinib],,50.4,> 45.8,14.6
CCCCC(=O)O[C@H]1CC[C@H]2[C@@H]3CCc4cc(O)ccc4[C@H]3CC[C@]12C [Estradiol valerate],,49.3,> 45.8,20.6
C[C@]12CC[C@@H]3c4ccc(O)cc4CC[C@H]3[C@@H]1CC[C@@H]2O [Estradiol],49.5,51.8,18.3,29.1
CCOc1ccc2nc3cc(N)ccc3c(N)c2c1 [Ethacridine lactate hydrate],54.4,50.6,18.3,29.1
CCOc1ccc(Cc2nccc3cc(OCC)c(OCC)cc23)cc1OCC [Ethaverine hydrochloride],61.3,,6.51,> 45.8
C#C[C@]1(O)CC[C@H]2[C@@H]3CCc4cc(O)ccc4[C@H]3CC[C@@]21C [Ethinylestradiol],,41.1,> 45.8,20.6
C#C[C@]1(OC(C)=O)CC[C@H]2[C@@H]3CCC4=C[C@@H](OC(C)=O)CC[C@@H]4[C@H]3CC[C@@]21C [Ethynodiol diacetate],,47.1,> 45.8,23.1
COc1cc([C@@H]2c3cc4c(cc3[C@@H](O[C@@H]3O[C@@H]5CO[C@@H](C)O[C@H]5[C@H](O)[C@H]3O)[C@H]3COC(=O)[C@H]23)OCO4)cc(OC)c1OP(=O)(O)O [Etoposide  Phosphate],60.8,79.9,0.517,0.366
COc1cc([C@@H]2c3cc4c(cc3[C@@H](O[C@@H]3O[C@@H]5CO[C@@H](C)O[C@H]5[C@H](O)[C@H]3O)[C@H]3COC(=O)[C@H]23)OCO4)cc(OC)c1O [Etoposide],66.7,99.1,29.1,2.91
Cc1cc(C#N)cc(C)c1Oc1nc(Nc2ccc(C#N)cc2)nc(N)c1Br [Etravirine],49,54.9,29.1,29.1
CC[C@@]1(O)C(=O)OCc2c1cc1n(c2=O)Cc2c-1nc1cc(F)c(C)c3c1c2[C@@H](N)CC3 [Exatecan],60,48.8,0.0259,0.0231
C=CC[C@@H]1/C=C(\C)C[C@H](C)C[C@H](OC)[C@H]2O[C@@](O)(C(=O)C(=O)N3CCCC[C@H]3C(=O)O[C@H](/C(C)=C/[C@@H]3CC[C@@H](O)[C@H](OC)C3)[C@H](C)[C@@H](O)CC1=O)[C@H](C)C[C@@H]2OC [FK-506],78.2,45.5,6.51,4.61
C=C1/C(=C\C=C2/CCC[C@]3(C)[C@@H]([C@H](C)CCCC(O)(C(F)(F)F)C(F)(F)F)CC[C@@H]23)C[C@@H](O)C[C@@H]1O [Falecalcitriol],68.9,96.5,29.1,23.1
CCOC(=O)C1=C(C)NC(C)=C(C(=O)OC)C1c1cccc(Cl)c1Cl (configuration not stated) [Felodipine],47.4,52,18.3,18.3
CCc1c(Cl)c(O)c(Cl)c(O)c1C(=O)O[C@H]1[C@H](O)[C@H](OC)[C@H](OC/C2=C\C=C\C[C@H](O)/C(C)=C/[C@H](CC)[C@@H](O[C@@H]3OC(C)(C)[C@@H](OC(=O)C(C)C)[C@H](O)[C@@H]3O)/C(C)=C/C(C)=C/C[C@@H]([C@@H](C)O)OC2=O)O[C@@H]1C [Fidaxomicin],103,53.2,20.6,20.6
N#Cc1c(N2C[C@@H]3NCCO[C@H]3C2)c(F)cc2c(=O)c(C(=O)O)cn(C3CC3)c12 [Finafloxacin],,72.2,> 45.8,18.3
CCCCCCCCc1ccc(CCC(N)(CO)CO)cc1 [Fingolimod hydrochloride],108,100,29.1,20.6
O=c1[nH]c(=O)n([C@H]2C[C@H](O)[C@@H](CO)O2)cc1F [Floxuridine],49.1,43,2.91,1.16
Fc1ccc(C(c2ccc(F)cc2)N2CCN(C/C=C/c3ccccc3)CC2)cc1 [Flunarizine],109,80,20.6,18.3
